Test results taken from patent publication US11124554B2, “Modified ligand-gated ion channels and methods of use” (Howard Hughes Medical Institute, priority 2016, dated 2021).
pEC50: −log10 of the molar value. Entries after “also recorded” stand apart in the source; their conditions may differ. Read-outs that look alike come from different tables or passages of the source.

How the values were obtained:
[1] = system: α7GlyR chimeric channels with G175K and A298G mutations; type: cell-based, human; details: read-out: Agonist potency
α7^Y115F-GlyR G175V = biological target: T1, α7^Y115F-GlyR G175V (Homo sapiens, UniProt P36544, G175V/Y115F); assay: Agonist potency at chimeric channel (Table 8); type: cell-based; details: relative to α7^Y115F-GlyR
T1 construct: expressed in transfected cells
T1 sequence (P36544 with tags, fused parts or gaps Y115F/G175V): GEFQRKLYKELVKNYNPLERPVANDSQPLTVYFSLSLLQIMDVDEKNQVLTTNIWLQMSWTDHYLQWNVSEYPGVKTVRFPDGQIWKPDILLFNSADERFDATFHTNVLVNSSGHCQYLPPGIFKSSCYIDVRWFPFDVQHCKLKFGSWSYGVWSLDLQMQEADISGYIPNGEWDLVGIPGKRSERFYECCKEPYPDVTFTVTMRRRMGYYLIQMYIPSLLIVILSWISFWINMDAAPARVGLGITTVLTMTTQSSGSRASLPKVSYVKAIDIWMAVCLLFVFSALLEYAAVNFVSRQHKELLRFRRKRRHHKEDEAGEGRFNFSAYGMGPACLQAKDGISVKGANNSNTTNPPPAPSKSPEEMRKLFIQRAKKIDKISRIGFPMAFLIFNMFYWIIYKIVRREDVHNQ

α7^Q79S,L131G,Q139L-GlyR = biological target: T2, α7^Q79S,L131G,Q139L-GlyR (Homo sapiens, UniProt P36544, L131G/Q139L/Q79S); assay: cell-based; type: cell-based
T2 construct: expressed in transfected cells
T2 sequence (P36544 with tags, fused parts or gaps Q79S/L131G/Q139L): as the sequence (P36544 with tags, fused parts or gaps Y115F/G175V) above, with Q57S, F93Y, L109G, Q117L, V153G counted along it

α7^Q79S,L131G-GlyR = biological target: T3, α7^Q79S,L131G-GlyR (Homo sapiens, UniProt P36544, L131G/Q79S); assay: Agonist potency at chimeric channel (Table 9); type: cell-based
T3 construct: expressed in transfected cells
T3 sequence (P36544 with tags, fused parts or gaps Q79S/L131G): as the sequence (P36544 with tags, fused parts or gaps Y115F/G175V) above, with Q57S, F93Y, L109G, V153G counted along it

[2] = system: mouse cortical neurons transduced with α7^Q79G-GlyR^A298G; assay: Action potential firing of transduced cortical neurons; type: cell-based; details: 30 nM; 40 pA current injection; restored after washout
Excerpt: After washout (WASH) of tropisetron, neuron firing is restored.
(§1) AAVs or DNA plasmids containing nucleic acids encoding a α7^Q79G-GlyR^A298G or α7Q79G,Y115F,G175K-GlyR chimeric LGICs were transduced into mouse cortical neurons. […] Neuron activity was silenced by application of low concentration of agonist (FIG. 7 and FIG. 8C).

α7^Y115F-GlyR G175S = biological target: T4, α7^Y115F-GlyR G175S (Homo sapiens, UniProt P36544, G175S/Y115F); assay: Agonist potency at chimeric channel (Table 8); type: cell-based; details: relative to α7^Y115F-GlyR
T4 construct: expressed in transfected cells
T4 sequence (P36544 with tags, fused parts or gaps Y115F/G175S): as the sequence (P36544 with tags, fused parts or gaps Y115F/G175V) above, with V153S counted along it

α7^Y115F-GlyR G175F = biological target: T5, α7^Y115F-GlyR G175F (Homo sapiens, UniProt P36544, G175F/Y115F); assay: Agonist potency at chimeric channel (Table 8); type: cell-based; details: relative to α7^Y115F-GlyR
T5 construct: expressed in transfected cells
T5 sequence (P36544 with tags, fused parts or gaps Y115F/G175F): as the sequence (P36544 with tags, fused parts or gaps Y115F/G175V) above, with V153F counted along it

[3] = system: mouse cortical neurons transduced with α7^Q79G,Y115F,G175K-GlyR; assay: Action potential firing of transduced cortical neurons; type: cell-based; details: 100 nM; current injection; restored after washout
Excerpt: FIGS. 8A-8C show activity of agonists on chimeric LGICs with a G175K mutation. FIG. 8A) A graph of EC50s for Q79G G175K LBD mutants against known agonists normalized to the unmodified α7-GlyR chimeric channel (log scale). […] Unmod.: unmodified α7-GlyR chimeric LGIC. FIG. 8C) Action potentials of cortical neurons from a mouse brain transduced with α7^Q79G,Y115F,G175K-GlyR chimeric LGIC. […] After washout (WASH) of tropisetron, neuron firing is restored
as §1

α7^Y115F-GlyR G175R = biological target: T6, α7^Y115F-GlyR G175R (Homo sapiens, UniProt P36544, G175R/Y115F); assay: Agonist potency at chimeric channel (Table 8); type: cell-based; details: relative to α7^Y115F-GlyR
T6 construct: expressed in transfected cells
T6 sequence (P36544 with tags, fused parts or gaps Y115F/G175R): as the sequence (P36544 with tags, fused parts or gaps Y115F/G175V) above, with V153R counted along it

α7^L131G-5HT3 HC = assay: Agonist potency at chimeric channel (Table 9); type: cell-based, human
α7^Y115F,G175K-GlyR = biological target: T7, α7^Y115F,G175K-GlyR (Homo sapiens, UniProt P36544, G175K/Y115F); assay: Agonist potency at chimeric channel; type: cell-based; details: relative to α7^Y115F-GlyR
T7 construct: expressed in transfected cells
T7 sequence (P36544 with tags, fused parts or gaps Y115F/G175K): as the sequence (P36544 with tags, fused parts or gaps Y115F/G175V) above, with V153K counted along it

α7^L131G,Y217F-GlyR = biological target: T8, α7^L131G,Y217F-GlyR (Homo sapiens, UniProt P36544, L131G/Y217F); assay: Agonist potency at chimeric channel (Table 9); type: cell-based
T8 construct: expressed in transfected cells
T8 sequence (P36544 with tags, fused parts or gaps L131G/Y217F): as the sequence (P36544 with tags, fused parts or gaps Y115F/G175V) above, with F93Y, L109G, V153G, Y195F counted along it

α7^L131A-GlyR = biological target: T9, α7^L131A-GlyR (Homo sapiens, UniProt P36544, L131A); assay: Agonist potency at chimeric channel (Table 9); type: cell-based
T9 construct: expressed in transfected cells
T9 sequence (P36544 with tags, fused parts or gaps L131A): as the sequence (P36544 with tags, fused parts or gaps Y115F/G175V) above, with F93Y, L109A, V153G counted along it

[4] = biological target: T10, α7^L131G,Q139L,Y217F-GlyR (Homo sapiens, UniProt P36544, L131G/Q139L/Y217F); assay: cell-based; type: cell-based
T10 construct: expressed in transfected cells
T10 sequence (P36544 with tags, fused parts or gaps L131G/Q139L/Y217F): as the sequence (P36544 with tags, fused parts or gaps Y115F/G175V) above, with F93Y, L109G, Q117L, V153G, Y195F counted along it

[5] = system: mouse cortical neurons transfected with α7^L131G,Q139L,Y217F-GlyR; assay: Action potential firing of transfected cortical neurons; type: cell-based; details: 10 nM; even with >6-fold greater injected current
Excerpt: FIGS. 9A-9D show activity of agonists on chimeric LGICs with a L131G mutation. FIG. 9A) A graph of EC50s for L131 LBD mutants against known agonists normalized to the unmodified α7-GlyR chimeric channel (log scale). […] Unmod.: unmodified α7-GlyR chimeric LGIC. FIG. 9D) Action potentials of a cortical neuron from a mouse brain transduced with α7^L131G,Q139L,Y217F-GlyR chimeric LGIC. […] After washout (WASH) of tropisetron, neuron firing is restored.
DNA plasmids containing nucleic acids encoding a α7L131G,Q139L,Y217F-GlyR chimeric LGICs were transfected into mouse cortical neurons. […] Neuron activity was silenced by application of low concentration of agonist (FIG. 9C).

[6] = biological target: T11, α7^L131G,Q139L,Y217F-5HT3 HC (Homo sapiens, UniProt P36544, L131G/M226I/Q139L/T225I/Y217F); assay: Agonist potency at chimeric channel (Table 9); type: cell-based; details: α7^L131G,Q139L,Y217F-5HT3 HC
T11 construct: expressed in transfected cells
T11 sequence (P36544 with tags, fused parts or gaps L131G/Q139L/Y217F/T225I/M226I limits assumed): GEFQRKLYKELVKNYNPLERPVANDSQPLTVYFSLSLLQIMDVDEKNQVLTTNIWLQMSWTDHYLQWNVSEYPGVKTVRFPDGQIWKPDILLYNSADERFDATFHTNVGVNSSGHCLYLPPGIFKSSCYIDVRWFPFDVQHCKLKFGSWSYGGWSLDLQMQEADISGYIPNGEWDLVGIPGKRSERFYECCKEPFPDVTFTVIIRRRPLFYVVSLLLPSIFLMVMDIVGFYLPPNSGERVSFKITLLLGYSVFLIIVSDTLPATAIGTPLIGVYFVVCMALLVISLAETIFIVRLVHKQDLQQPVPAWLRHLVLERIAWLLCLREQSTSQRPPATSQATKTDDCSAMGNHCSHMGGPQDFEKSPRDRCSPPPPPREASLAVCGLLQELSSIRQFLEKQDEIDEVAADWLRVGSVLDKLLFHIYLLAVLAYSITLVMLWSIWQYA

α7^L131G,Q139L-GlyR = biological target: T12, α7^L131G,Q139L-GlyR (Homo sapiens, UniProt P36544, L131G/Q139L); assay: Agonist potency at chimeric channel (Table 9); type: cell-based
T12 construct: expressed in transfected cells
T12 sequence (P36544 with tags, fused parts or gaps L131G/Q139L): as the sequence (P36544 with tags, fused parts or gaps Y115F/G175V) above, with F93Y, L109G, Q117L, V153G counted along it

## CN1[C@@H]2CC[C@H]1C[C@@H](OC(=O)c1c[nH]c3ccccc13)C2 [Tropisetron]
[1]; α7GlyR Q79G A298G G175K Y115F
  pEC50: 8.55
[1]; α7GlyR Q79G G175K A298G
  pEC50: 9.22
α7^Y115F-GlyR G175V
  potency enhancement at α7^Y115F-GlyR by additional mutation G175V: 16.7 fold
α7^Q79S,L131G,Q139L-GlyR; α7^Q79S,L131G,Q139L-GlyR
  improved potency over α7-GlyR: 3 fold
α7^Q79S,L131G-GlyR; α7^Q79S,L131G-GlyR
  improved potency over α7-GlyR: 15 fold
[2]
  suppression of action potential firing: silenced; also recorded: potently suppressed
α7^Y115F-GlyR G175S
  potency enhancement at α7^Y115F-GlyR by additional mutation G175S: 9.3 fold
α7^Y115F-GlyR G175F
  potency enhancement at α7^Y115F-GlyR by additional mutation G175F: 2 fold
[3]
  suppression of action potential firing: silenced; also recorded: potently suppressed
α7^Y115F-GlyR G175R
  potency enhancement at α7^Y115F-GlyR by additional mutation G175R: 5.8 fold
α7^L131G-5HT3 HC; α7^L131G-5HT3 HC
  potency enhancement: 2.3 fold
α7^Y115F,G175K-GlyR
  potency enhancement at α7^Y115F-GlyR by additional mutation G175K: 5.6 fold

## c1cnc2cc3c(cc2n1)[C@@H]1CNC[C@H]3C1 [Varenicline]
α7^Q79S,L131G,Q139L-GlyR
  improved potency over α7-GlyR: 31 fold
α7^L131G,Y217F-GlyR
  potency enhancement over α7-GlyR: 21 fold
α7^L131A-GlyR
  potency enhancement: 8 fold
α7^Q79S,L131G-GlyR
  improved potency over α7-GlyR: 89 fold
[4]
  improvement in potency over α7-GlyR: 387 fold
[5]
  suppression of action potential firing: silenced; also recorded: potently suppressed
[6]
  improved potency over a7-5HT3: 131 fold
α7^L131G,Q139L-GlyR
  potency enhancement over α7-GlyR: 21 fold
α7^L131G-5HT3 HC
  potency enhancement: 16 fold
